# Assay results reported in US20090118332A1, “Therapeutic Agents - 551” (AstraZeneca AB, priority 2006, published 2009).
# Target: T1, human Fatty Acid Synthase (Homo sapiens, UniProt P49327)
# T1 construct: made in house
# Assay: Human FAS enzyme assay (decrease in NADPH fluorescence)
# Type: biochemical
# Settings: % inhibition at a concentration of 100 μmolar
# In short: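 In-house human FAS was preincubated with compound and NADPH for 15 min at room temperature in 0.1 M Tris pH 7.5 with EDTA, glutathione and BSA. Malonyl CoA and acetyl CoA (500 μM and 150 μM in the added mix) were then added for 60 min. IC50 came from time-zero-subtracted NADPH fluorescence (340/460 nm).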
# T1 sequence (P49327 whole entry): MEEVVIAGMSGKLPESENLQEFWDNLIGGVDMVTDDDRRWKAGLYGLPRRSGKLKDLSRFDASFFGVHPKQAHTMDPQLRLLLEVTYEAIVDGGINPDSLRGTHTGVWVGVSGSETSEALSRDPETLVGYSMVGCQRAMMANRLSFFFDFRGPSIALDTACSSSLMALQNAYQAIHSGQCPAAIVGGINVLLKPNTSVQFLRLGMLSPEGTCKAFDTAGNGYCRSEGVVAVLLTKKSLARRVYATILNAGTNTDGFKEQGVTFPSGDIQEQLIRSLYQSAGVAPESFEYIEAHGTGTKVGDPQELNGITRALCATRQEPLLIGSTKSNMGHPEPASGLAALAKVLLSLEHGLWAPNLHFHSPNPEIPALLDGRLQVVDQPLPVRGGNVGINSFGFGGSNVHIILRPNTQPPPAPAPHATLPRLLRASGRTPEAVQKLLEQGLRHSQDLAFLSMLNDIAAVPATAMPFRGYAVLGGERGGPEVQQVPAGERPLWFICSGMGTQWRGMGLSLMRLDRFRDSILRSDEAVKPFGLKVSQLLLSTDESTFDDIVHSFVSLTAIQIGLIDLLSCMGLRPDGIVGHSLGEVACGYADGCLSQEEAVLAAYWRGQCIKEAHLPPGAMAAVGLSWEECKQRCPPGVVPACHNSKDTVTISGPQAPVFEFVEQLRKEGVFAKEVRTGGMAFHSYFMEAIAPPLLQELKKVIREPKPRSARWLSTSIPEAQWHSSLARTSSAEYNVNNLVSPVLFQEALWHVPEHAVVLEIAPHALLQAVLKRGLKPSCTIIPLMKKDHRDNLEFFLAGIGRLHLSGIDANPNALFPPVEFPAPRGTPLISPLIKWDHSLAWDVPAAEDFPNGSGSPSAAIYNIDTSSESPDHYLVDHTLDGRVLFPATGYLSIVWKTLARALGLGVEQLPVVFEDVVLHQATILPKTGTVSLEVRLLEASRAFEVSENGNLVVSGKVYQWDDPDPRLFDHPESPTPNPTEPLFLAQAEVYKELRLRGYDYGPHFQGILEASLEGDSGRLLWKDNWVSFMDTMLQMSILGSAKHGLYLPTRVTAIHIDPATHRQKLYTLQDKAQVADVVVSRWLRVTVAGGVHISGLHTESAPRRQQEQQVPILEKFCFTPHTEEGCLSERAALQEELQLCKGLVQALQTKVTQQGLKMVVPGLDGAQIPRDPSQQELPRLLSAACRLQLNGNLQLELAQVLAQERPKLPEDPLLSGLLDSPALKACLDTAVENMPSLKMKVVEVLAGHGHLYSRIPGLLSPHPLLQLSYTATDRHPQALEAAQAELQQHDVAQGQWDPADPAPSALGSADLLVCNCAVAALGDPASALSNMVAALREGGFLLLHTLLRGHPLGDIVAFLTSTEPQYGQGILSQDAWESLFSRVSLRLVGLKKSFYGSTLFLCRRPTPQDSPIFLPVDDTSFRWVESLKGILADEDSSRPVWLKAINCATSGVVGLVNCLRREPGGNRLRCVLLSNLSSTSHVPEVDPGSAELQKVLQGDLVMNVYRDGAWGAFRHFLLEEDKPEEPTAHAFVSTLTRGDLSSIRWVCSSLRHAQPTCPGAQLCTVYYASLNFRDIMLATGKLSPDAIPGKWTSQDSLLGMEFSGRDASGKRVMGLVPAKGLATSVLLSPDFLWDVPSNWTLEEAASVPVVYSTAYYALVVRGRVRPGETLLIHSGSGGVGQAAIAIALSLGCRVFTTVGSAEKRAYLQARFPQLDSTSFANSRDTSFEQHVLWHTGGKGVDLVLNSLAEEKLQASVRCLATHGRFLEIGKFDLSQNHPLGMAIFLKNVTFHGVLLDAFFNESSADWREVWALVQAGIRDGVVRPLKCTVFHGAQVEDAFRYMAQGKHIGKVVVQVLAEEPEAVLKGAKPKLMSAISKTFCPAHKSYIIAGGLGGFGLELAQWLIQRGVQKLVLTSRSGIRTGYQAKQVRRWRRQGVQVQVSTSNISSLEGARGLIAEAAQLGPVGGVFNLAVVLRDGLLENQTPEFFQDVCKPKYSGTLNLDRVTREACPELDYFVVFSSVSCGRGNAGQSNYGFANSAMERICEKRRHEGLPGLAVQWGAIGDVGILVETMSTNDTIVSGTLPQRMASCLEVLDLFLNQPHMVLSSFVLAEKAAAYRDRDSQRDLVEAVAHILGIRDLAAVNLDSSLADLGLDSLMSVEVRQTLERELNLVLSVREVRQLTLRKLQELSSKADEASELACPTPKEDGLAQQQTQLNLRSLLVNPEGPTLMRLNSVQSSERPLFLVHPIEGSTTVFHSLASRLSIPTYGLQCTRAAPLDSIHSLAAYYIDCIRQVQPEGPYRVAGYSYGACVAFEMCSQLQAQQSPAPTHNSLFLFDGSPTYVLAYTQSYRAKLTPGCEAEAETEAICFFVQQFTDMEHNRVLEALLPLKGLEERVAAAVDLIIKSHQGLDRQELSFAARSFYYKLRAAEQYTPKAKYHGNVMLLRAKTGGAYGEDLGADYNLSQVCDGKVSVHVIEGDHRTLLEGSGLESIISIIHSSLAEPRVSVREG
row,SMILES,inhibition at 100 µM [%]
1,"Cc1ccc(C(=O)N2CCC(c3ccc(C#N)cc3)CC2)cc1NC(=O)NCc1cccnc1 [Example 35, 1-[5-[4-(4-cyanophenyl)piperidine-1-carbonyl]-2-methyl-phenyl]-3-(pyridin-3-ylmethyl)urea]",91.6
2,"Cc1ccc(C(=O)N2CCC(c3ccc(C#N)cc3)CC2)cc1NC(=O)NCCNc1nc(N)nc(C)c1C [Example 94, 3-[2-[(2-amino-5,6-dimethyl-pyrimidin-4-yl)amino]ethyl]-1-[5-[4-(4-cyanophenyl)piperidine-1-carbonyl]-2-methyl-phenyl]urea]",89.6
3,"C#CCNC(=O)Nc1ccc(C)c(C(=O)N2CCC(c3ccc(C#N)cc3)CC2)c1 [Example 418, 1-[3-[4-(4-cyanophenyl)piperidine-1-carbonyl]-4-methylphenyl]-3-prop-2-ynylurea]",67.3
4,"Cc1ccc(C(=O)N2CCC(c3ccc(C(=O)N(C)C)cc3)CC2)cc1NC(=O)NC(C)C [Example 124, N,N-dimethyl-4-[1-[4-methyl-3-(propan-2-ylcarbamoylamino)benzoyl]-4-piperidyl]benzamide]",78
5,"Cc1ccc(C(=O)N2CCC(c3ccc(C#N)cc3)CC2)cc1NC(=O)NCc1ccccn1 [Example 52, 1-[5-[4-(4-cyanophenyl)piperidine-1-carbonyl]-2-methyl-phenyl]-3-(pyridin-2-ylmethyl)urea]",94.4
6,"Cc1ccc(C(=O)N2CCC(c3ccc(C#N)cc3)CC2)cc1NC(=O)NC1CCCCC1 [Example 228, 1-[5-[4-(4-cyanophenyl)piperidine-1-carbonyl]-2-methyl-phenyl]-3-cyclohexyl-urea]",82.1
7,"Cc1ccc(NC(=O)N[C@H]2CC[C@H](O)CC2)cc1C(=O)N1CCC(c2ccc(C#N)cc2)CC1 [Example 49, 1-[3-[4-(4-cyanophenyl)piperidine-1-carbonyl]-4-methyl-phenyl]-3-trans-(4-hydroxycyclohexyl)urea]",98.1
8,"Cc1ccc(C(=O)N2CCC(c3ccc(C#N)cc3)CC2)cc1NC(=O)NC(C)(C)CN [Example 260, 3-(1-amino-2-methyl-propan-2-yl)-1-[5-[4-(4-cyanophenyl)piperidine-1-carbonyl]-2-methyl-phenyl]urea]",77.4
9,"Cc1ccc(C(=O)N2CCC(c3ccc(C#N)cc3)CC2)cc1NC(=O)NCCCNS(=O)(=O)C(C)C [Example 217, 1-[5-[4-(4-cyanophenyl)piperidine-1-carbonyl]-2-methyl-phenyl]-3-[3-(propan-2-ylsulfonylamino)propyl]urea]",87
10,"Cc1ccc(C(=O)N2CCC(c3ccc(C#N)cc3)CC2)cc1NC(=O)NCc1ccc(S(C)(=O)=O)cc1 [Example 243, 1-[5-[4-(4-cyanophenyl)piperidine-1-carbonyl]-2-methyl-phenyl]-3-[(4-methylsulfonylphenyl)methyl]urea]",99.9
11,"Cc1ccc(NC(=O)N(C)Cc2ccccc2)cc1C(=O)N1CCC(c2ccc(C#N)cc2)CC1 [Example 24, 1-benzyl-3-[3-[4-(4-cyanophenyl)piperidine-1-carbonyl]-4-methyl-phenyl]-1-methyl-urea]",78.1
12,"CCS(=O)(=O)N[C@@H]1CCCC[C@@H]1NC(=O)Nc1cc(C(=O)N2CCC(c3ccc(C#N)cc3)CC2)ccc1C (relative stereo) [Example 309, 3-[5-[4-(4-cyanophenyl)piperidine-1-carbonyl]-2-methyl-phenyl]-1-[(cis)-2-(ethylsulfonylamino)cyclohexyl]urea]",96.7
13,"Cc1ccc(C(=O)N2CCC(c3ccc(C#N)cc3)CC2)cc1NC(=O)NC1CCCCC1O (racemic) [Example 187, (RS) 1-[5-[4-(4-cyanophenyl)piperidine-1-carbonyl]-2-methyl-phenyl]-3-(2-hydroxycyclohexyl)urea]",90.4
14,"Cc1ccc(C(=O)N2CCC(c3cccc(C#N)c3)CC2)cc1NC(=O)NC(C)C [Example 327, 1-[5-[4-(3-cyanophenyl)piperidine-1-carbonyl]-2-methyl-phenyl]-3-propan-2-yl-urea]",93.1
15,"COC(=O)CCNC(=O)Nc1cc(C(=O)N2CCC(c3ccc(C#N)cc3)CC2)ccc1C [Example 45, methyl 3-[[5-[4-(4-cyanophenyl)piperidine-1-carbonyl]-2-methyl-phenyl]carbamoylamino]propanoate]",91.8
16,"Cc1ccc(C(=O)N2CCC(c3ccc(C#N)cc3)CC2)cc1NC(=O)NCC1CC1 [Example 288, 1-[5-[4-(4-cyanophenyl)piperidine-1-carbonyl]-2-methyl-phenyl]-3-(cyclopropylmethyl)urea]",99.8

row,SMILES,inhibition at 100 µM [%]
1,"Cc1cc(CNC(=O)Nc2cc(C(=O)N3CCC(c4ccc(C#N)cc4)CC3)ccc2C)[nH]n1 [Example 292, 1-[5-[4-(4-cyanophenyl)piperidine-1-carbonyl]-2-methyl-phenyl]-3-[(5-methyl-2H-pyrazol-3-yl)methyl]urea]",95.6
2,"Cc1ccc(C(=O)N2CCC(c3ccc(C#N)cc3)CC2)cc1NC(=O)NC(C)c1ccc(S(C)(=O)=O)cc1 (stereo not drawn) [Example 98, 1-[5-[4-(4-cyanophenyl)piperidine-1-carbonyl]-2-methyl-phenyl]-3-[1-(4-methylsulfonylphenyl)ethyl]urea]",91.9
3,"Cc1ccc(C(=O)N2CCC(c3ccc(C#N)cc3)CC2)cc1NC(=O)NCCc1c[nH]cn1 [Example 139, 1-[5-[4-(4-cyanophenyl)piperidine-1-carbonyl]-2-methyl-phenyl]-3-[2-(1H-imidazol-4-yl)ethyl]urea]",87
4,"Cc1ccc(C(=O)N2CCC(c3ccc(C#N)cc3)CC2)cc1NC(=O)N[C@@H]1CCCC[C@H]1NS(=O)(=O)N(C)C (relative stereo) [Example 319, 1-[5-[4-(4-cyanophenyl)piperidine-1-carbonyl]-2-methyl-phenyl]-3-[(trans)-2-(dimethylsulfamoylamino)cyclohexyl]urea]",84.3
5,"Cc1ccc(C(=O)N2CCC(c3ccc(Cl)cc3)CC2)cc1NC(=O)NCc1ccccn1 [Example 355, 1-[5-[4-(4-chlorophenyl)piperidine-1-carbonyl]-2-methyl-phenyl]-3-(pyridin-2-ylmethyl)urea]",82.2
6,"CCOC(=O)N1CCC(NC(=O)Nc2cc(C(=O)N3CCC(c4ccc(C#N)cc4)CC3)ccc2C)CC1 [Example 132, ethyl 4-[[5-[4-(4-cyanophenyl)piperidine-1-carbonyl]-2-methyl-phenyl]carbamoylamino]piperidine-1-carboxylate]",89.5
7,"Cc1ccc(C(=O)N2CCC(c3ccc(C#N)cc3)CC2)cc1NC(=O)NCc1ccncn1 [Example 266, 1-[5-[4-(4-cyanophenyl)piperidine-1-carbonyl]-2-methyl-phenyl]-3-(pyrimidin-4-ylmethyl)urea]",103
8,"Cc1ccc(C(=O)N2CCC(c3ccc(C(F)(F)F)cc3)CC2)cc1NC(=O)NC1CCCNC1 (stereo not drawn) [Example 337, 1-[2-methyl-5-[4-[4-(trifluoromethyl)phenyl]piperidine-1-carbonyl]phenyl]-3-(3-piperidyl)urea]",90.1
9,"Cc1ccc(C(=O)N2CCC(c3ccc(C#N)cc3)CC2)cc1NC(=O)N[C@@H]1CCCC[C@@H]1NS(=O)(=O)N(C)C (relative stereo) [Example 317, 1-[5-[4-(4-cyanophenyl)piperidine-1-carbonyl]-2-methyl-phenyl]-3-[(cis)-2-(dimethylsulfamoylamino)cyclohexyl]urea]",94.9
10,"COCCNC(=O)Nc1cc(C(=O)N2CCC(c3ccc(C#N)cc3)CC2)c(C)cc1C [Example 412, 1-[5-[4-(4-cyanophenyl)piperidine-1-carbonyl]-2,4-dimethylphenyl]-3-(2-methoxyethyl)urea]",89.9
11,"Cc1ccc(C(=O)N2CCC(O)(c3ccc(Cl)cc3)CC2)cc1NC(=O)NC(C)C [Example 350, 1-[5-[4-(4-chlorophenyl)-4-hydroxy-piperidine-1-carbonyl]-2-methyl-phenyl]-3-propan-2-yl-urea]",71.4
12,"Cc1ccc(C(=O)N2CCC(c3ccc(C#N)cc3)CC2)cc1NC(=O)N(C)CCO [Example 392, 3-[5-[4-(4-cyanophenyl)piperidine-1-carbonyl]-2-methylphenyl]-1-(2-hydroxyethyl)-1-methylurea]",76.3
13,"COc1ccc(C2CCN(C(=O)c3ccc(C)c(NC(=O)NC(C)C)c3)CC2)cc1 [Example 328, 1-[5-[4-(4-methoxyphenyl)piperidine-1-carbonyl]-2-methyl-phenyl]-3-propan-2-yl-urea]",86.7
14,"Cc1ccc(C(=O)N2CCC(c3ccc(C#N)cc3)CC2)cc1NC(=O)NCC(=O)N(C)C [Example 238, 2-[[5-[4-(4-cyanophenyl)piperidine-1-carbonyl]-2-methyl-phenyl]carbamoylamino]-N,N-dimethyl-acetamide]",89.9
15,"CCS(=O)(=O)N1CC(NC(=O)Nc2cc(C(=O)N3CCC(c4ccc(C#N)cc4)CC3)ccc2C)C1 [Example 311, 3-[5-[4-(4-cyanophenyl)piperidine-1-carbonyl]-2-methyl-phenyl]-1-(1-ethylsulfonylazetidin-3-yl)urea]",105
16,"CCOCC1CCCN1C(=O)Nc1cc(C(=O)N2CCC(c3ccc(C#N)cc3)CC2)ccc1C (stereo not drawn) [Example 399, N-[5-[4-(4-cyanophenyl)piperidine-1-carbonyl]-2-methylphenyl]-2-(ethoxymethyl)pyrrolidine-1-carboxamide]",73.3

# Same assay, conditions: FAS enzyme assay, IC50 from fitted sigmoid curves
row,SMILES,"IC50, inhibition of human Fatty Acid Synthase"
1,"Cc1ccc(C(=O)N2CCC(c3ccc(C#N)cc3)CC2)cc1NC(=O)N(C1CC1)C1CCS(=O)(=O)C1 (stereo not drawn) [3-[5-[4-(4-cyanophenyl)piperidine-1-carbonyl]-2-methylphenyl]-1-cyclopropyl-1-(1,1-dioxothiolan-3-yl)urea]",do not have IC50s in the range of about 0.001 μM to about 30 μM
